Test results from paper PMC8999917, “Structure–Activity Relationship of Synthetic Ginkgolic Acid Analogs for Treating Type 2 Diabetes by PTPN9 Inhibition” (International Journal of Molecular Sciences, 2022).

Tests used:
PTPN9 = molecular target: T1, PTPN9 (Homo sapiens, UniProt P43378); assay: PTPN9 enzyme inhibition with DiFMUP substrate; format: biochemical; settings: DiFMUP 220 µM, PTPN9 0.15 nM; NA: no activity
T1 construct: made in house; host or cells: Escherichia coli Rosetta (DE3)
T1 sequence (P43378 277-581): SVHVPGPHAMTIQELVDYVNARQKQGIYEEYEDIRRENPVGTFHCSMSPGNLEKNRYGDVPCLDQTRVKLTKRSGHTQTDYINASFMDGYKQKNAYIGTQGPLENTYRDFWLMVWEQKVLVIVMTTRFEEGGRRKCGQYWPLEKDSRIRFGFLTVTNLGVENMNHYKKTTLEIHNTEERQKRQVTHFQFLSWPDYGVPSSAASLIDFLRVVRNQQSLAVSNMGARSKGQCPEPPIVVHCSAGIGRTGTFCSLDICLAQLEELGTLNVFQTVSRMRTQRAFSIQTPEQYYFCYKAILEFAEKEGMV
Protocol: (§1) The purification and kinetic analyses of PTPN9 and DUSP9 (Ser277–581) were performed following methods described in the literature, with slight modifications. PAGE analysis data and enzyme kinetic constants are presented in Figure S1 and Table S1, respectively. Enzyme activity in the presence or absence of the compounds was measured using DiFMUP, a representative PTP fluorogenic substrate. First, the inhibitory effects of compounds 1–3 were evaluated using 50 µM PTPN9 and 20 µM DUSP9. There was an increase in the inhibitory activity of compound 1 for both enzymes as the number of CH2 units increased from 9 to 14 (Figure 2A,B).
(§2) Next, the IC50 values of the compounds, which induce a 50% inhibition of DiFMUP hydrolytic enzyme activity, were determined (Table 1). The IC50 values were determined from the dose–response enzyme inhibition curves of each compound. The dose–response curves for compounds 1e and 1f against PTPN9 and DUSP9, respectively, are presented in Figure 2C,D. Dose–response curves were also obtained for the other compounds (Figures S2 and S3).
(§3) The methods employed for PTP overexpression and purification have been described in a previous study. In brief, human PTPN9 and DUSP9 were cloned into a pET28a vector (Merk Millipore, Darmstadt, Germany) containing a hexahistidine (His6) tag or a maltose-binding protein (MBP) tag in its N-terminus (see Supplementary Materials). Recombinant genes were separately transformed into Escherichia coli Rosetta (DE3) (Merk Millipore, Darmstadt, Germany), and the overexpression of each gene was induced via the addition of 0.1 mM IPTG (Ducherfa Biochemie, Haarlem, RV, USA). After 16 h of incubation at 18 °C, cell pellets were obtained via centrifugation (3570× g at 4 °C for 15 min), resuspended in lysis buffer (50 mM Tris, pH: 7.5, 500 mM NaCl, 5% glycerol, 0.025% 2-mercaptoethanol, and 1 mM phenyl-methylsulfonyl fluoride (PMSF)), and lysed by ultrasonication. Subsequently, cell lysates were centrifuged at 29,820× g for 30 min at 4 °C; then, the supernatant was collected and incubated with a cobalt affinity resin (TALON® Metal Affinity Resin, Takara Korea, Seoul, Korea). After 1 h of incubation at 4 °C, the desired proteins were eluted by adding the lysis buffer supplemented with 100 mM imidazole. Samples were stored at –80 °C until use.
(§4) The enzymatic activities of purified PTPN9 and DUSP9 were measured using 6,8-difluoro-4-methylumbelliferyl phosphate (DiFMUP), the most widely used fluorogenic PTP substrate in the literature. To determine KM values, PTPN9 (0.15 nM) and DUSP9 (200 nM) were added to a reaction buffer (20 mM Bis-tris, pH: 7.0, 150 mM NaCl, 2.5 mM dithiothreitol (DTT), and 0.01% Triton X-100) containing DiFMUP (800, 400, 200, 100, 50, 25, 12.5, or 6.25 μM) in a 96-well black plate. The final reaction volume was 100 µL. The fluorescence intensity was continuously monitored for 10 min (Ex/Em = 355/460 nm) on a Victor™ X4 multilabel plate reader (Perkin Elmer, Norwalk, CT, USA). KM values were obtained using Lineweaver–Burk plots analysis.
(§5) To evaluate the enzyme inhibitory effects of GA and its analogs, 10 µl of the enzyme stock solution (1.5 nM PTPN9 and 2 µM DUSP9) in the reaction buffer was added into the mixture of DiFMUP (to a final concentration of 220 µM and 90 µM for PTPN9 and DUSP9, respectively) and each compound (to a final concentration of 50 µM and 20 µM for PTPN9 and DUSP9, respectively) was added to the reaction buffer. Enzyme activity was measured as described above. Half-inhibitory concentration (IC50) values were determined under similar conditions, except for the concentrations of the inhibitors (200, 100, 50, 25, 12.5, 6.25, or 3.125 µM for PTPN9 and 25, 12.5, 6.25, 3.125, 1.563, 0.782, or 0.391 µM for DUSP9). The dose-dependent curve was fitted to the four-parameter logistic regression equation, (y = a + (b – a)/(1 + (x/c)^d), to obtain IC50 values using the Kaleida Graph software Ver. 4.1.3. (Synergy Software Inc, PA, USA).

DUSP9 = molecular target: T2, DUSP9 (Homo sapiens, UniProt Q99956); assay: DUSP9 enzyme inhibition with DiFMUP substrate; format: biochemical; settings: DiFMUP 90 µM, DUSP9 200 nM; NA: no activity
T2 construct: made in house; host or cells: Escherichia coli Rosetta (DE3)
T2 sequence (Q99956 1-384): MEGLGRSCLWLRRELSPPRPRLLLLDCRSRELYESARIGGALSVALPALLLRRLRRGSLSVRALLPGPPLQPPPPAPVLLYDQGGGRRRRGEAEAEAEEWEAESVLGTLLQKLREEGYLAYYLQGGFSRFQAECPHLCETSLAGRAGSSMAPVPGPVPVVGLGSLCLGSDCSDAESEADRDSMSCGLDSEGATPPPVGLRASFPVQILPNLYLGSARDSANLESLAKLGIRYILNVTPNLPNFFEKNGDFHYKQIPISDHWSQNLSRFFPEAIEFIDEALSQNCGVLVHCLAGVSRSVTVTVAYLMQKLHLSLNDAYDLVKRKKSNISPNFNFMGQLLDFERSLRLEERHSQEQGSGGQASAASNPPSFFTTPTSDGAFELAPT
Protocol: as §1, §2, §3, §4, §5

IC50 (PTPN9) | IC50 (DUSP9) | SMILES
18.31 ± 0.17 µM | 6.4 ± 0.87 µM | CCCCCCCCCCCCCOc1cccc(O)c1C(=O)O [Compound 1e]
10.2 ± 0.52 µM | 5.87 ± 0.55 µM | CCCCCCCCCCCCCCCOc1cccc(O)c1C(=O)O [Compound 1f]
